Measurements published in US7947852B2, “Naphthalene compounds, a process for their preparation and pharmaceutical compositions containing them” (Les Laboratoires Servier, priority 2007, dated 2011).

Key:
MT2 receptor = biological target: T1, MT2 receptor (Homo sapiens, UniProt P49286); assay: Melatonin MT2 receptor binding study; details: 2-[125I]-iodomelatonin radioligand, competitive binding
T1 sequence (P49286 1-362): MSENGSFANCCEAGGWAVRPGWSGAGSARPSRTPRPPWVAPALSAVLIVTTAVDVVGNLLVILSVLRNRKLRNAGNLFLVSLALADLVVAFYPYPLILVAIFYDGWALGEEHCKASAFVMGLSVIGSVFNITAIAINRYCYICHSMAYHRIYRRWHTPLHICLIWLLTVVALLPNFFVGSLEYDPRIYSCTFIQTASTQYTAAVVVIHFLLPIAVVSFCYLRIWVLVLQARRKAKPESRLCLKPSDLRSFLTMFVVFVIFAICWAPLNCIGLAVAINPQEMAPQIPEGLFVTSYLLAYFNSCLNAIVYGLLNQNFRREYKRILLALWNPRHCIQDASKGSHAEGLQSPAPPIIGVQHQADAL
Experimental: (§1) The MT1 or MT2 receptor binding experiments are carried out using 2-[^125I]-iodomelatonin as reference radioligand. The radioactivity retained is determined using a liquid scintillation counter.
(§2) Competitive binding experiments are then carried out in triplicate using the various test compounds. A range of different concentrations is tested for each compound. The results enable the binding affinities of the compounds tested (Ki) to be determined.

MT1 receptor = MT1 receptor (Homo sapiens, UniProt P48039); assay: Melatonin MT1 receptor binding study; details: 2-[125I]-iodomelatonin radioligand, competitive binding
Chain of MT1 receptor (P48039 whole entry): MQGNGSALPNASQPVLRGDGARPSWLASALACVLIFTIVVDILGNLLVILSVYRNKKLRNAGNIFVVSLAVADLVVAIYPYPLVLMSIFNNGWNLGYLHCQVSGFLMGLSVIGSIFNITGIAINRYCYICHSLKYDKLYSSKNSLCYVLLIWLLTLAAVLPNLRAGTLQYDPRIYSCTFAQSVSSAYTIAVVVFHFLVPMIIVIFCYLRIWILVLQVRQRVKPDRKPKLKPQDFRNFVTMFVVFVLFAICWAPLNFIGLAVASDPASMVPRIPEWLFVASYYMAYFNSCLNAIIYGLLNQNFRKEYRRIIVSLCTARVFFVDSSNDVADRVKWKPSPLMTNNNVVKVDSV
Experimental: as §1, §2

Ki (MT2 receptor): 0.8 nM | Ki (MT1 receptor): 7 nM
SMILES: COc1ccc2cccc(/C(CNC(C)=O)=N\O)c2c1 [Example 2, N-[(2E)-2-(Hydroxyimino)-2-(7-methoxy-1-naphthyl)ethyl]acetamide]
